Source: US11071731B2, “Allosteric modulators of the mu opioid receptor” (Chiromics, LLC, priority 2017, dated 2021)

Assays:
mu opioid receptor (MOR) [1] = target: T1, mu opioid receptor (MOR) (Homo sapiens, UniProt P35372); assay: PathHunter β-arrestin recruitment assay, PAM mode with EC20 endomorphin-1; type: cell-based; settings: for EC50: read-out: β-arr. EC50
In short: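 β-Arrestin recruitment to the receptor was tracked by chemiluminescent β-galactosidase activity from complementing fragments (ED on receptor, EA on β-arrestin). Per-compound outputs were EC50 and percent maximal response.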

mu opioid receptor (MOR) [2] = target: T1, mu opioid receptor (MOR); assay: Hit Hunter cAMP signaling assay (adenylyl cyclase inhibition), PAM mode with EC20 endomorphin-1; type: cell-based
[3] = maximal response for β-arrestin recruitment
[4] = cAMP EC50, adenylyl cyclase inhibition
[5] = maximal response for adenylyl cyclase inhibition
[6] = maximal response, β-arrestin recruitment
[7] = adenylyl cyclase inhibition, read-out: cAMP EC50
[8] = maximal response, adenylyl cyclase inhibition

T1 sequence (P35372 whole entry, the tested form may be a part): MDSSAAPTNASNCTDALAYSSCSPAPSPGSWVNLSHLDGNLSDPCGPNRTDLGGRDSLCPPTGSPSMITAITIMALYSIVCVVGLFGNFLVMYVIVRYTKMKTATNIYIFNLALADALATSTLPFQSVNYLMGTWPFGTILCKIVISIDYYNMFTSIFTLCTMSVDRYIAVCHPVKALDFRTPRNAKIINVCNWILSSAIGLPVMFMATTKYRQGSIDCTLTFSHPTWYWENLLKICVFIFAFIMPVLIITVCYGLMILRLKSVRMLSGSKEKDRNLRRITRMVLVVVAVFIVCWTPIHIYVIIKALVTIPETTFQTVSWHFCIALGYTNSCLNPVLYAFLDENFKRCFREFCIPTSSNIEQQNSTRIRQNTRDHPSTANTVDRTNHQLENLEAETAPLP

SMILES | β-arr Max. Resp. (mu opioid receptor (MOR) [1]; [3]) | EC50 (mu opioid receptor (MOR) [1]; β-arrestin recruitment) [µM] | EC50 (mu opioid receptor (MOR) [2]; [4]) [nM] | cAMP Max. Resp. (mu opioid receptor (MOR) [2]; [5]) | β-arr Max. Resp. (mu opioid receptor (MOR) [1]; [6]) | EC50 (mu opioid receptor (MOR) [2]; [7]) [nM] | cAMP Max. Resp. (mu opioid receptor (MOR) [2]; [8]) | β-arr. Max Resp. (mu opioid receptor (MOR) [1]; maximal response for β-arrestin recruitment, Table 3) | EC50 (mu opioid receptor (MOR) [1]; β-arrestin recruitment, Table 3) [µM] | EC50 (mu opioid receptor (MOR) [2]; cAMP EC50 (nM), adenylyl cyclase inhibition, Table 3) [nM] | cAMP Max Resp. (mu opioid receptor (MOR) [2]; maximal response for adenylyl cyclase inhibition, Table 3)
Fc1ccc(Cl)nc1N1CCCCC1c1ccc(C(F)(F)F)nc1 (centres unmarked) [compound 415] | D (D represents a maximal response of < 40%) | < 0.7 | < 700 | D (D represents a maximal response of < 40%) |  |  |  |  |  |  | 
Fc1cc(C2CC(C(F)(F)F)CN2c2nc(Cl)ncc2F)cc(C(F)(F)F)c1 (centres unmarked) [compound 457] |  | > 2.1 |  |  | F (F represents a maximal response of > 60%) | > 2100 | E (E represents a maximal response of 40-60%) |  |  |  | 
Fc1cnc(Cl)nc1N1CCCCC1c1cccc2nccn12 (centres unmarked) [compound 284] | D (D represents a maximal response of < 40%) | > 2.1 | > 2100 | E (E represents a maximal response of 40-60%) |  |  |  |  |  |  | 
Fc1cnc(Cl)nc1N1CCCCC1c1cnc2cnccn12 (centres unmarked) [compound 338] | D (D represents a maximal response of < 40%) | < 0.7 | < 700 | D (D represents a maximal response of < 40%) |  |  |  |  |  |  | 
O=S(=O)(c1ccc(Cl)cc1)N1CCCCC1c1cc(F)ccn1 (racemic) [compound 62] | F (F represents a maximal response of > 60%) | > 2.1 |  | D (D represents a maximal response of < 40%) |  | > 2100 |  |  |  |  | 
COc1ccc(C2CCCCN2S(=O)(=O)c2cccnc2Cl)cc1Br (centres unmarked) [compound 17] | D (D represents a maximal response of < 40%) | > 2.1 | > 2100 | D (D represents a maximal response of < 40%) |  |  |  |  |  |  | 
[2H]C1(c2cccc(C(F)(F)F)c2)C(F)CCCN1c1nc(Cl)ncc1F (single isomer, unassigned) [compound 209] | F (F represents a maximal response of > 60%) | 0.7 to 2.1 |  | D (D represents a maximal response of < 40%) |  |  |  |  |  |  | 
Fc1cncc(C2CCCCN2c2nc(Cl)ncc2F)c1 (centres unmarked) [compound 370] | D (D represents a maximal response of < 40%) | < 0.7 | < 700 | D (D represents a maximal response of < 40%) |  |  |  |  |  |  | 
Cc1cnc(N2CCCCC2c2cccc(C(F)(F)F)c2)nc1Cl (centres unmarked) [compound 266] | E (E represents a maximal response of 40-60%) | > 2.1 | > 2100 | D (D represents a maximal response of < 40%) |  |  |  |  |  |  | 
N#Cc1cccc(N2CCCCC2c2ccc(F)c(Cl)c2)c1 (centres unmarked) [compound 218] | E (E represents a maximal response of 40-60%) | 0.7 to 2.1 |  | D (D represents a maximal response of < 40%) |  | > 2100 |  |  |  |  | 
Fc1cc(Cl)cc(CN2CCCCC2c2ccc(F)c(Cl)c2)c1 (centres unmarked) [compound 155] | F (F represents a maximal response of > 60%) | 0.7 to 2.1 | 700 to 2100 | D (D represents a maximal response of < 40%) |  |  |  |  |  |  | 
Fc1cc(Cl)cc(CN2CCCCC2c2cccc(C(F)(F)F)n2)c1 (centres unmarked) [compound 164] | F (F represents a maximal response of > 60%) | 0.7 to 2.1 | < 700 | E (E represents a maximal response of 40-60%) |  |  |  |  |  |  | 
Fc1ccc(C2CCCCN2c2nc(Cl)ncc2F)cc1Cl (centres unmarked) [compound 121] | F (F represents a maximal response of > 60%) | < 0.7 | < 700 | E (E represents a maximal response of 40-60%) |  |  |  |  |  |  | 
COc1ccc(C2CC(F)(F)CN2c2nc(Cl)ncc2F)cc1Br (centres unmarked) [compound 466] |  | > 2.1 |  |  | F (F represents a maximal response of > 60%) | > 2100 | D (D represents a maximal response of < 40%) |  |  |  | 
O=S(=O)(c1ccc(Cl)cc1)N1CCCCC1c1ccc(C(F)(F)F)cn1 (racemic) [compound 65] | F (F represents a maximal response of > 60%) | > 2.1 |  | E (E represents a maximal response of 40-60%) |  | > 2100 |  |  |  |  | 
COc1cc(C2CCCCN2S(=O)(=O)c2ccc(Cl)cc2)ccc1Br (centres unmarked) [compound 42] | E (E represents a maximal response of 40-60%) | 0.7 to 2.1 |  | D (D represents a maximal response of < 40%) |  | > 2100 |  |  |  |  | 
[2H]C1(c2cccc(C(F)(F)F)c2)C(F)CCCN1c1nc(Cl)ncc1F (centres unmarked) [compound 207] | F (F represents a maximal response of > 60%) | 0.7 to 2.1 | 700 to 2100 | D (D represents a maximal response of < 40%) |  |  |  | 116 | 1.17 | 969 | 34
